Here are results for 25 compounds from US20240067613A1, “NOVEL QUINAZOLINE DERIVATIVES AS SOS1 INHIBITORS AND USE THEREOF” (HANMI PHARMACEUTICAL CO., LTD., priority 2020, published 2024).

Structures are written as SMILES.

The target of this assay is T1, SOS1 binding to KRAS G12C (Homo sapiens, UniProt Q07889).
T1 construct: consisting of amino acid residues 564 to 1049 which are the catalytic domain; purchased Reaction Biology Corporation MSC-11-502 (SOS1-Strep); MSC-11-538 (KRAS G12C)
T1 sequence (Q07889 564-1049): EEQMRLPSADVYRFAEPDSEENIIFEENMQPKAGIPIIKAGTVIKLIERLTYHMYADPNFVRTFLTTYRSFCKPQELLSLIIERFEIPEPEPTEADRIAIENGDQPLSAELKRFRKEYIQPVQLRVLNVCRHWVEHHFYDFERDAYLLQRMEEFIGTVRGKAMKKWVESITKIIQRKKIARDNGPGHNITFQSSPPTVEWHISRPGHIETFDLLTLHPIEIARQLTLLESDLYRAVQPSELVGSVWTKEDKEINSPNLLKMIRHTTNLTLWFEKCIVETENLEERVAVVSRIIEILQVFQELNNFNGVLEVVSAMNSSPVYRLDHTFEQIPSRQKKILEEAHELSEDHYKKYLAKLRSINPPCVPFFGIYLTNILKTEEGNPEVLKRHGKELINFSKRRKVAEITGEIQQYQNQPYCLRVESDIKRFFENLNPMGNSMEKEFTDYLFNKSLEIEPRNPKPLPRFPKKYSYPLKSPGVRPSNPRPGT
As to the kind of experiment: SOS1 GTP substitution inhibition test (HTRF/TR-FRET, KRAS G12C-SOS1 binding inhibitory ability). It is filed as biochemical. The following applies: HTRF, GST-KRAS G12C (2-169), SOS1-Strep (564-1049), 1.6, 8, 40, 200, 1,000 nM. As to the method:
In order to determine whether the substitution function of SOS1 binding to KRAS G12C is inhibited by the above-described example compounds, a homogeneous time-resolved fluorescence (HTRF) test was performed using G12C(#MSC-11-538) and SOS1-Strep(#MSC-11-502) purchased from Reaction Biology Corporation (MA, USA). The activity of SOS1 enzyme was determined by measuring the amount of GTP bound to KRAS G12C proteins, using the principle of time-resolved fluorescence energy transfer (TR-FRET). Based on the principle that terbium bound to the GST-binding antibody of the GST-KRAS G12C protein acts as a donor of fluorescence resonance energy transfer (FRET), and the GTP bound to the KRAS G12C protein is labeled with the fluorescent agent DY-647P1 and acts as a receiver, when the more GTP is bound to the KRAS G12C protein by the substitution reaction of SOS1 according to this test, the higher HTRF or FRET signal is measured. To summarize, glutathione S-transferase (GST)-tagged KRAS G12C proteins (consisting of amino acid residues 2 to 169) required for the reaction, streptavidin-tagged SOS1 proteins (consisting of amino acid residues 564 to 1049 which are the catalytic domain), anti-GST antibody (#61[…]) purchased from CISBIO corporation, nucleic acid (#NU-820-647P1) purchased from Jena Bioscience GmbH were mixed in a buffer solution formed from 10 mM HEPES pH7.4, 150 mM NaCl, 5 mM MgCl2, and 1 mM dithiothreitol (DTT), and the mixture was added to a 384-well plate and reacted at room temperature. Next, FRET signals were measured with a Perkin Elmer Envision microplate reader. In this case, an excitation signal (excitation) was measured at 320 nm, and an emission signal (emission) was measured at 615/665 nm. The fluorescence measurement value when the SOS1 protein was not included was calculated as a background signal value, and the background signal value was subtracted from all of the measured HTRF values. The fluorescence measurement value when the synthesized compound was not included was measured as a control value, and this value was selected as a reference point of 100%. For each of the example compounds, fluorescence was measured at concentrations of 1.6, 8, 40, 200, and 1,000 nM (5 points, 5-fold), and the 50% activity inhibition value (IC50) of each of the compounds was calculated using GraphPad Prism. When the IC50 value was 50 nM or less, the inhibitory ability was denoted as +++. When the IC50 value was more than 50 nM and 100 nM or less, the inhibitory ability was denoted as ++. When the IC50 value was more than 100 nM, the inhibitory ability was denoted as +.
Background: TR-FRET usually uses a lanthanide donor and a delayed reading to cut background.
Turning to `COc1cc2c(N[C@H](C)c3cc(N)cc(C(F)(F)F)c3)nc(C)nc2cc1C(=O)N1CCOCC1` [Example 1, (R)-(4-((1-(3-amino-5-(trifluoromethyl)phenyl)ethyl)amino)-6-methoxy-2-methylquinazoline-7-yl)(morpholino)methanone], the IC50 was not above 50 nM.
Then `CNCc1ccccc1-c1csc(C(C)Nc2nc(C)nc3cc(C(=O)N4CCOCC4)c(OC)cc23)c1` (stereo not shown) [Example 2, (6-methoxy-2-methyl-4-((1-(4-(2-((methylamino)methyl)phenyl)thiophen-2-yl)ethyl)amino)quinazoline-7-yl)(morpholino)methanone], with 50 to 100 nM; and `COc1cc2c(N[C@H](C)c3cc(N)cc(C(F)(F)F)c3)nc(C)nc2cc1C(=O)N1C[C@@H](C)N[C@@H](C)C1` [Example 3, (4-(((R)-1-(3-amino-5-(trifluoromethyl)phenyl)ethyl)amino)-6-methoxy-2-methylquinazoline-7-yl)((3R, S)-3,5-dimethylpiperazin-1-yl)methanone], with more than 100 nM; and `COc1cc2c(N[C@H](C)c3cc(N)cc(C(F)(F)F)c3)nc(C)nc2cc1C(=O)N1CCSCC1` [Example 4, (R)-(4-((1-(3-amino-5-(trifluoromethyl)phenyl)ethyl)amino)-6-methoxy-2-methylquinazoline-7-yl)(thiomorpholino)methanone], with 50 to 100 nM.
Consider `COc1cc2c(N[C@H](C)c3cc(N)cc(C(F)(F)F)c3)nc(C)nc2cc1C(=O)N1CC2COCC2C1` (stereo partly drawn) [Example 5, (4-(((R)-1-(3-amino-5-(trifluoromethyl)phenyl)ethyl)amino)-6-methoxy-2-methylquinazoline-7-yl)(tetrahydro-1H-furo[3,4-c]pyrrol-5(3H)-yl)methanone], for which the IC50 is more than 100 nM.
For `COc1cc2c(N[C@H](C)c3cccc(C(F)F)c3F)nc(C)nc2cc1C(=O)N1CCOCC1` [Example 6, (R)-(4-((1-(3-(difluoromethyl)-2-fluorophenyl)ethyl)amino)-6-methoxy-2-methylquinazoline-7-yl)(morpholino)methanone] the value was 50 to 100 nM; for `COc1cc2c(N[C@H](C)c3cc(N)cc(C(F)(F)F)c3)nc(C)nc2cc1C(=O)N1CCC1` [Example 7, (R)-(4-((1-(3-amino-5-(trifluoromethyl)phenyl)ethyl)amino)-6-methoxy-2-methylquinazoline-7-yl)(azetidine-1-yl)methanone], more than 100 nM; for `COc1cc2c(NC(C)c3cc(-c4cccc5c4CNCC5)cs3)nc(C)nc2cc1C(=O)N1CCOCC1` (stereo not shown) [Example 8, (6-methoxy-2-methyl-4-((1-(4-(1,2,3,4-tetrahydroisoquinolin-8-yl)thiophen-2-yl)ethyl)amino)quinazoline-7-yl)(morpholino)methanone], more than 100 nM.
Then `COc1cc2c(N[C@H](C)c3cc(N)cc(C(F)(F)F)c3)nc(C)nc2cc1C(=O)N1CCNCC1` [Example 9, (R)-(4-((1-(3-amino-5-(trifluoromethyl)phenyl)ethyl)amino)-6-methoxy-2-methylquinazoline-7-yl)(piperazine-1-yl)methanone], with not above 50 nM; and `COc1cc2c(N[C@H](C)c3cc(NC(=O)C(F)(F)F)cc(C(F)(F)F)c3)nc(C)nc2cc1C(=O)N1CCOCC1` [Example 10], with more than 100 nM; and `COc1cc2c(N[C@H](C)c3cc(N)cc(C(F)(F)F)c3)nc(C)nc2cc1C(=O)N1CC(F)C1` [Example 11, (R)-(4-((1-(3-amino-5-(trifluoromethyl)phenyl)ethyl)amino)-6-methoxy-2-methylquinazoline-7-yl)(3-fluorazetidine-1-yl)methanone], with more than 100 nM.
For `COc1cc2c(NC(C)c3cc(-c4ccccc4CN(C)C)cs3)nc(C)nc2cc1C(=O)N1CCOCC1` (stereo not shown) [Example 12] the value was 50 to 100 nM; for `COc1cc2c(NC(C)c3cc(-c4ccccc4CN)cs3)nc(C)nc2cc1C(=O)N1CCOCC1` (stereo not shown) [Example 13], 50 to 100 nM; for `COc1cc2c(NC(C)c3cc(-c4ccccc4CO)cs3)nc(C)nc2cc1C(=O)N1CCOCC1` (stereo not shown) [Example 14], more than 100 nM.
As to `COc1cc2c(N[C@H](C)c3cccc(C(F)(F)F)c3)nc(C)nc2cc1C(=O)N1CCOCC1` [Example 15, (R)-(6-methoxy-2-methyl-4-((1-(3-(trifluoromethyl)phenyl)ethyl)amino)quinazolin-7-yl)(morpholino)methanone], the half-maximal inhibitory concentration (IC50) was more than 100 nM.
For `COc1cc2c(N[C@H](C)c3cc(N)cc(C(F)(F)F)c3C)nc(C)nc2cc1C(=O)N1CCOCC1` [Example 16, (R)-(4-((1-(5-amino-2-methyl-3-(trifluoromethyl)phenyl)ethyl)amino)-6-methoxy-2-methylquinazolin-7-yl)(morpholino)methanone] the value was 50 to 100 nM.
Then `COc1cc2c(N[C@H](C)c3cc(N)cc(F)c3)nc(C)nc2cc1C(=O)N1CCOCC1` [Example 17], with not above 50 nM.
Then `COc1cc2c(N[C@H](C)c3cc(N)cc(C(F)(F)F)c3)nc(C)nc2cc1C(=O)N1CCS(=O)(=O)CC1` [Example 18, (R)-(4-((1-(3-amino-5-(trifluoromethyl)phenyl)ethyl)amino)-6-methoxy-2-methylquinazolin-7-yl)(1,1-dioxothiomorpholino)methanone], with not above 50 nM; and `COc1cc2c(N[C@H](C)c3cccc(N)c3OC)nc(C)nc2cc1C(=O)N1CCOCC1` [Example 19, (R)-(4-((1-(3-amino-2-methoxyphenyl)ethyl)amino)-6-methoxy-2-methylquinazolin-7-yl)(morpholino)methanone], with more than 100 nM; and `COc1cc2c(N[C@H](C)c3cc(N)cc(C(F)(F)F)c3)nc(C)nc2cc1C(=O)N1CCSC1` [Example 20, (R)-(4-((1-(3-amino-5-(trifluoromethyl)phenyl)ethyl)amino)-6-methoxy-2-methylquinazolin-7-yl)(thiazolidine-3-yl)methanone], with not above 50 nM.
As for `COc1cc2c(N[C@H](C)c3cc(C)cc(N)c3)nc(C)nc2cc1C(=O)N1CCOCC1` [Example 21, (R)-(4-((1-(3-amino-5-methylphenyl)ethyl)amino)-6-methoxy-2-methylquinazolin-7-yl)(morpholino)methanone], the half-inhibitory concentration (IC50) lay within 50 to 100 nM.
The compound `COc1cc2c(N[C@H](C)c3cc(N)cc(C#N)c3)nc(C)nc2cc1C(=O)N1CCOCC1` [Example 22, (R)-3-amino-5-(1-((6-methoxy-2-methyl-7-(morpholine-4 carbonyl)quinazolin-4-yl)amino)ethyl)benzonitrile] registered an IC50 of more than 100 nM.
Then `COc1cc2c(N[C@H](C)c3cccc4c3CCC4)nc(C)nc2cc1C(=O)N1CCOCC1` [Example 23, (R)-(4-((1-(2,3-dihydro-1H-inden-4-yl)ethyl)amino)-6-methoxy-2-methylquinazolin-7-yl)(morpholino)methanone], with 50 to 100 nM.
Then `COc1cc2c(N[C@H](C)c3cc(N)cc(C4CC4)c3)nc(C)nc2cc1C(=O)N1CCOCC1` [Example 24, (R)-(4-((1-(3-amino-5-cyclopropylphenyl)ethyl)amino)-6-methoxy-2-methylquinazolin-7-yl)(morpholino)methanone], with 50 to 100 nM; and `COc1cc2c(N[C@H](C)c3cc(N)cc(C(F)(F)F)c3F)nc(C)nc2cc1C(=O)N1CCOCC1` [Example 25, (R)-(4-((1-(5-amino-2-fluoro-3-(trifluoromethyl)phenyl)ethyl)amino)-6-methoxy-2-methylquinazolin-7-yl)(morpholino)methanone], with not above 50 nM.

In general, IC50 refers to the concentration that inhibits the measured activity by half. Lower therefore signals higher potency.
